Results as given in PubChem BioAssay (NCI).
Several values for one entry are separate records, joined by “and”; a condition that tells them apart may be missing. Equal values may be shown once.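 Cells were grown in 96-well plates and exposed to each compound for 48 hours at five concentrations; endpoints were interpolated linearly between bracketing concentrations, or set to the highest concentration if not reached. Here, GI50 denotes the concentration required for 50% inhibition of growth. TGI is the concentration that stops growth completely.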

What was measured:
Assay in all cases: NCI-60 cell line screen, 48 h
NCI-H460 lung = test system: NCI-H460 lung
MCF7 breast = test system: MCF7 breast
OVCAR-4 ovarian = test system: OVCAR-4 ovarian
RPMI-8226 leukemia = test system: RPMI-8226 leukemia
UACC-257 melanoma = test system: UACC-257 melanoma
OVCAR-8 ovarian = test system: OVCAR-8 ovarian
786-0 renal = test system: 786-0 renal
OVCAR-5 ovarian = test system: OVCAR-5 ovarian
MALME-3M melanoma = test system: MALME-3M melanoma
UACC-62 melanoma = test system: UACC-62 melanoma

Row | Compound | TGI (NCI-H460 lung) [µM] | GI50 (MCF7 breast) [µM] | TGI (MCF7 breast) | GI50 (OVCAR-4 ovarian) [µM] | TGI (OVCAR-4 ovarian) | GI50 (RPMI-8226 leukemia) [µM] | TGI (RPMI-8226 leukemia) | GI50 (UACC-257 melanoma) [µM] | TGI (UACC-257 melanoma) | GI50 (OVCAR-8 ovarian) [µM] | TGI (OVCAR-8 ovarian) | GI50 (786-0 renal) [µM] | TGI (786-0 renal) | TGI (OVCAR-5 ovarian) [µM] | TGI (MALME-3M melanoma) [µM] | TGI (UACC-62 melanoma) [µM] | GI50 (NCI-H460 lung) [µM] | GI50 (OVCAR-5 ovarian) [µM] | GI50 (UACC-62 melanoma) [µM] | GI50 (MALME-3M melanoma) [µM]
1 | COc1ccc2cc1Oc1ccc(cc1)C[C@H]1c3cc(c(OC)cc3CCN1C)Oc1c(OC)c(OC)cc3c1[C@H](C2)N(C)CC3 | 14.5 | 5.27 | 14 µM and 17.8 µM and > 100 µM | 12.4 | 11.1 µM and 28.5 µM | 1.92 | 20.3 µM and 5.21 µM | 4.06 | 11.4 µM and 14.6 µM and > 100 µM | 6.53 | 16.3 µM and 19.2 µM and > 100 µM | 5.1 | 12.4 µM and 18 µM and > 100 µM |  |  |  |  |  |  | 
2 | Cc1ccccc1C(C#N)C(=O)C(=O)Nc1nc([N+](=O)[O-])cs1 (configuration not stated) | > 100 |  |  |  | > 100 µM |  |  |  | > 100 µM |  | > 100 µM |  | > 100 µM | > 100 | > 100 | > 100 |  |  |  | 
3 | CCOc1ccc(NC(=O)CC2Sc3ccccc3NC2=O)cc1 (configuration not stated) | > 100 |  |  |  | 39.8 µM |  | > 100 µM |  | > 100 µM |  | 42.9 µM |  | 39.3 µM | > 100 | > 100 | > 100 |  |  |  | 
4 | O=C(/C=C/c1ccc(Cl)cc1)c1ccc(Cl)cc1Cl | 24.8 | 6.28 | 23 µM | 6.14 | 14 µM | 1.42 | 11 µM | 10.4 | 18.5 µM | 8.65 | 21.5 µM | 7.05 | 15.8 µM | 18 |  | 12.4 | 10.4 | 9.15 | 1.28 | 
5 | COc1cc2c3c(cccc3c1)C(=O)N(CCN1CCCC1)C2=O | 11.3 | 1.71 | 20.4 µM |  |  |  |  |  |  | 1.66 | > 100 µM | 2.92 | > 100 µM | > 100 | 4.1 | 3.71 | 2.26 | 4.12 | 1.79 | 1.88
6 | O=[N+]([O-])[C@@H]1C2C=CC(C2)[C@H]1Cl (some centres not stated) | > 100 |  |  |  | > 100 µM |  | > 100 µM |  | > 100 µM |  | > 100 µM |  | > 100 µM | > 100 | > 100 | > 100 |  |  |  | 
7 | C[C@@H]1CC[C@H]2C(COCC3=C(C(F)(F)F)O[C@@H]4O[C@@]5(C)CC[C@H]6[C@H](C)CC[C@@H]3[C@@]46OO5)=C(C(F)(F)F)O[C@@H]3O[C@@]4(C)CC[C@@H]1[C@]32OO4 | > 100 | < 0.01 | > 100 µM | 0.0251 | > 100 µM | < 0.01 | > 100 µM |  |  | < 0.0178 | > 100 µM | 0.182 | > 100 µM | > 100 | > 100 | > 100 | < 0.01 | 0.0101 | 0.0609 | < 0.01
8 | O=C(C#Cc1c[nH]c(=O)[nH]c1=O)c1ccccc1Cl | 67.7 |  |  |  | 31.1 µM |  | 71.7 µM |  | 27.9 µM |  | 29.3 µM |  | 32 µM | 34 | 32.1 | 38.6 |  |  |  | 
9 | CN(C)/C(=N/C(=S)Nc1ccccc1)SCc1ccccc1 |  |  |  |  | > 100 µM |  | > 100 µM |  | > 100 µM |  | > 100 µM |  | > 100 µM | > 100 | > 100 | > 100 |  |  |  | 
10 | C=C1C(=O)O[C@H]2[C@H]1CC/C(CNC(=O)c1c[nH]c3ccc(F)cc13)=C\CC[C@@]1(C)O[C@@H]21 | 14.8 |  |  | 3.17 | 15.2 µM | 1.14 | 3.72 µM | 2.06 | 4.89 µM | 2.61 | 10.3 µM | 1.33 | 2.85 µM | 4.82 | 3.3 | 3.03 | 3.43 | 1.9 | 1.27 | 1.41
11 | N#Cc1c(-c2cccs2)c2c(=S)[nH]c(=S)[nH]c2[nH]c1=S | 72.9 |  |  | 53 | > 100 µM | 27.4 | 73.6 µM | 18 | 81.3 µM |  |  | 36.4 | > 100 µM | > 100 |  | > 100 | 39.1 | > 100 | 36.3 | 
12 | COc1cc2c(c3c1C=CCO3)C(=O)c1ccccc1C2=O | > 100 |  |  |  |  |  | > 100 µM |  | 68.9 µM |  | > 100 µM |  | > 100 µM | > 100 | > 100 | > 100 |  |  |  | 
13 | CCOC(=O)CC1=Nc2ccccc2SC1 | > 100 |  |  |  | > 100 µM |  |  |  | > 100 µM |  | > 100 µM |  | > 100 µM | > 100 | > 100 | > 100 |  |  |  | 
14 | CCCCCCCCCCCCC(=O)OC(c1cnco1)c1nc(C(O)CC(O)C(O)C(C)O)co1 (configuration not stated) | > 37 |  |  | 2.02 | 91.5 µM | 0.694 | 29.2 µM | 5.16 | > 83 µM | 0.849 | > 55.7 µM | 1.02 | > 100 µM | > 100 | > 100 | 2.87 | 0.443 |  | 0.896 | 3.61
15 | FC(F)(F)c1nc(-c2ccccc2Cl)[nH]c1C(F)(F)F | 4.17 |  |  |  | 22.1 µM |  | 25.2 µM |  | 2.2 µM |  | 6.14 µM |  | 4.73 µM |  | 2.75 | 3.8 |  |  |  | 
16 | COc1ccc(/C=C/C=C(/C#N)C(N)=S)cc1 | 65.9 | 29.5 | > 100 µM | 27.9 | > 100 µM |  |  | 20.4 | 41.4 µM | 21.5 | 54.3 µM | 33.3 | > 100 µM | 95.8 | 99.4 | 37.9 | 23.7 | 34.3 | 19.3 | 26.9
17 | N#Cc1c(NC(=O)c2cccc(C(F)(F)F)c2)sc2c1CCC(=O)C2 |  |  |  | 0.298 | 0.952 µM | 0.239 | 0.869 µM | 0.728 | 3.85 µM | 1.15 | 6.97 µM | 0.716 | 5.85 µM | 3.97 | 1.12 | 2.14 | 1.19 | 1.14 | 0.495 | 0.326
18 | Cc1cc2c(cc1C)[n+](=O)c(C(=O)C/C(=N/NC(=O)c1ccccc1O)C(=O)Nc1ccccc1C(C)C)c(C)n2[O-] | > 100 |  |  |  | > 100 µM |  |  |  | > 100 µM |  | > 100 µM |  | > 100 µM | > 100 | > 100 | > 100 |  |  |  | 
